Values after ≈ are worked out from the molar mass of the structure shown.
How the values were obtained:
Test in all cases: ≥ marks a high value that may be exact or a test limit, other limits are often not marked, values filed in µg/mL are converted to µM
[1] = tested on: Staphylococcus aureus ATCC 25923
[2] = tested on: Escherichia coli ATCC 25922
[3] = tested on: Pseudomonas aeruginosa ATCC 27853

What does the source list for CSCC[C@H](NC(=O)[C@H](CCCN=C(N)N)NC(=O)[C@H](Cc1c[nH]c2ccccc12)NC(=O)[C@H](CCC(N)=O)NC(=O)[C@H](Cc1c[nH]c2ccccc12)NC(=O)[C@H](CCCN=C(N)N)NC(=O)[C@H](CCCN=C(N)N)NC(=O)[C@H](CS)NC(=O)[C@H](CCCCN)NC(=O)[C@@H](N)Cc1ccccc1)C(=O)N[C@@H](CCCCN)C(=O)O [FKCRRWQWRMK]?
MIC [1]: 30.8 µM (≈ 50 µg/mL); MIC [2]: 30.8 µM (≈ 50 µg/mL)

For CC[C@H](C)[C@H](NC(=O)[C@H](Cc1c[nH]c2ccccc12)NC(=O)[C@H](CCCCN)NC(=O)[C@H](Cc1c[nH]c2ccccc12)NC(=O)[C@H](Cc1c[nH]c2ccccc12)NC(=O)[C@H](CCCCN)NC(=O)[C@H](CCCCN)NC(=O)[C@H](Cc1c[nH]c2ccccc12)NC(=O)[C@@H](N)CCCCN)C(N)=O [KWKKWWKWI], which MIC [2] is on record?
Its MIC is 5.76 µM (≈ 7.99 µg/mL).

CSCC[C@H](NC(=O)[C@H](Cc1cnc[nH]1)NC(=O)[C@H](C)NC(=O)[C@H](CCSC)NC(=O)[C@@H](NC(=O)[C@H](CCCCN)NC(=O)[C@@H]1CCCN1C(=O)[C@H](CC(C)C)NC(=O)[C@@H](N)C(C)C)C(C)C)C(=O)N[C@@H](CCCCN)C(=O)O [VLPKVMAHMK] was tested. Which MIC [3] did it give?
The MIC was 32 µM (≈ 36.9 µg/mL).

How did the MIC [2] turn out when CC[C@H](C)[C@H](NC(=O)CNC(=O)[C@H](CC(N)=O)NC(=O)[C@@H](NC(=O)[C@@H](NC(=O)CNC(=O)[C@@H](NC(=O)[C@H](CCCCN)NC(=O)[C@@H](NC(=O)CNC(=O)[C@H](CCCCN)NC(=O)CNC(=O)[C@@H](NC(=O)[C@@H](NC(=O)[C@H](CCCCN)NC(=O)[C@@H]1CCCN1C(=O)[C@H](Cc1ccccc1)NC(=O)[C@@H](NC(=O)CN)[C@@H](C)CC)[C@@H](C)CC)[C@@H](C)CC)[C@@H](C)CC)[C@@H](C)O)[C@@H](C)CC)C(C)C)C(=O)N[C@@H](CCCCN)C(=O)N[C@@H](CO)C(=O)N[C@@H](CC(C)C)C(=O)N[C@H](C(=O)N[C@@H](CCCCN)C(=O)NCC(=O)N[C@H](C(=O)NCC(=O)N[C@@H](CCSC)C(=O)N[C@@H](CCCCN)C(=O)N[C@H](C(=O)N[C@@H](Cc1ccccc1)C(=O)N[C@@H](CCCCN)C(=O)N[C@@H](C)C(=O)NCC(=O)N[C@@H](CC(C)C)C(=O)N[C@@H](CC(N)=O)C(=O)N[C@@H](CC(N)=O)C(=O)N[C@H](C(=O)NCC(=O)N[C@@H](CC(N)=O)C(=O)N[C@H](C(=O)NCC(=O)N[C@H]1CSSC[C@@H](C(=O)O)NC(=O)[C@H](CCC(=O)O)NC(=O)[C@H](CC(=O)O)NC(=O)[C@H](CCC(=O)O)NC(=O)[C@H](CC(N)=O)NC1=O)[C@@H](C)O)[C@@H](C)CC)C(C)C)C(C)C)C(C)C [GIFPKIIGKGIKTGIVNGIKSLVKGVGMKVFKAGLNNIGNTGCNEDEC] was run?
The MIC was 1 µM (≈ 4.93 µg/mL).

CC[C@H](C)[C@H](NC(=O)[C@H](CCCCN)NC(=O)[C@H](CC(C)C)NC(=O)[C@H](CC(C)C)NC(=O)[C@@H]1CCCN1C(=O)CNC(=O)[C@H](CC(C)C)NC(=O)[C@H](CCCCN)NC(=O)CN)C(=O)N[C@@H](C)C(=O)N[C@@H](C)C(=O)N[C@@H](CCCCN)C(=O)N[C@H](C(=O)NCC(=O)N[C@@H](CO)C(=O)N[C@@H](CC(N)=O)C(=O)N[C@@H](CC(C)C)C(=O)N[C@@H](CC(C)C)C(N)=O)C(C)C [GKLGPLLKIAAKVGSNLL] was tested. Which MIC [2] did it give?
The MIC was 12.5 µM (≈ 22.4 µg/mL).

Which MIC [1] does the source give for CC(C)C[C@H](NC(=O)[C@H](C)NC(=O)[C@@H](N)CO)C(=O)N[C@H](C(=O)NCC(=O)N[C@H]1CSSC[C@@H](C(=O)N[C@@H](Cc2ccccc2)C(=O)NCC(=O)N[C@@H](CCCN=C(N)N)C(=O)O)NC(=O)[C@@H]2CCCN2C(=O)[C@H](CCCCN)NC(=O)[C@@H]2CCCN2C(=O)[C@@H]2CCCN2C(=O)[C@H](Cc2ccc(O)cc2)NC(=O)[C@H](CO)NC(=O)[C@H](CCCCN)NC(=O)[C@H]([C@@H](C)O)NC(=O)[C@H](Cc2c[nH]c3ccccc23)NC1=O)C(C)C [SALVGCWTKSYPPKPCFGR] here?
The MIC was 6 µM (≈ 12.6 µg/mL).

With CSCC[C@H](NC(=O)[C@H](CCCN=C(N)N)NC(=O)[C@@H](N)Cc1ccc(O)cc1)C(=O)N[C@@H](Cc1c[nH]c2ccccc12)C(=O)N[C@@H](CCCN=C(N)N)C(=O)N[C@@H](Cc1c[nH]c2ccccc12)C(=O)N[C@@H](CCCN=C(N)N)C(=O)N[C@@H](Cc1c[nH]c2ccccc12)C(=O)N[C@@H](CCCN=C(N)N)C(=O)N[C@@H](Cc1c[nH]c2ccccc12)C(=O)N[C@@H](CCCN=C(N)N)C(N)=O [YRMWRWRWRWR] as the compound, how does the MIC [3] read?
Its MIC is 10.9 µM (≈ 20 µg/mL).

What about the MIC [1] of the same compound?
Its MIC is 2.72 µM (≈ 5 µg/mL).

And the MIC [2]?
The MIC was 4.08 µM (≈ 7.5 µg/mL).

For CC(C)[C@H](NC(=O)[C@H](Cc1ccc(O)cc1)NC(=O)[C@H](CO)NC(=O)[C@H](CCCCN)NC(=O)[C@@H](N)Cc1c[nH]c2ccccc12)C(=O)N[C@@H](CCCN=C(N)N)C(=O)N[C@@H](CCCN=C(N)N)C(=O)N[C@@H](Cc1c[nH]c2ccccc12)C(=O)N[C@@H](CCCN=C(N)N)C(=O)N[C@@H](CO)C(N)=O [WKSYVRRWRS], which MIC [3] is on record?
Its MIC is over 100 µM.

What about the MIC [1] of the same compound?
Its MIC is over 100 µM.

What about the MIC [2] of the same compound?
Its MIC is 64 µM (≈ 91.1 µg/mL).

For CC(C)C[C@H](NC(=O)[C@@H](NC(=O)[C@H](CCCCN)NC(=O)[C@H](CCCCN)NC(=O)[C@@H](NC(=O)[C@H](CCCN=C(N)N)NC(=O)[C@H](CCCCN)NC(=O)[C@@H](NC(=O)[C@@H](N)CC(C)C)C(C)C)C(C)C)C(C)C)C(=O)O [LVKRVKKVL], which MIC [3] is on record?
The MIC was 64 µM (≈ 69.3 µg/mL).

Which MIC [2] does the source give for CC(C)[C@H](NC(=O)[C@H](CC(N)=O)NC(=O)[C@H](CCCCN)NC(=O)[C@H](CCCN=C(N)N)NC(=O)[C@@H]1CCCN1C(=O)[C@H](C)N)C(=O)N[C@@H](CCCN=C(N)N)C(=O)N[C@@H](Cc1c[nH]c2ccccc12)C(=O)O [APRKNVRW] here?
The MIC was 62.4 µM (≈ 64 µg/mL).

With CC(C)C[C@H](NC(=O)[C@H](CCCN=C(N)N)NC(=O)[C@@H](N)CCCCN)C(=O)N[C@@H](CCCN=C(N)N)C(=O)N[C@@H](CCCN=C(N)N)C(=O)N[C@H](C(=O)N[C@@H](Cc1c[nH]c2ccccc12)C(=O)N[C@@H](CCCN=C(N)N)C(=O)N[C@@H](CCCN=C(N)N)C(=O)N[C@@H](Cc1c[nH]c2ccccc12)C(=O)N[C@@H](CCCN=C(N)N)C(N)=O)C(C)C [KRLRRVWRRWR] as the compound, how does the MIC [3] read?
The MIC was 20 µM (≈ 33.3 µg/mL).

And the MIC [1]?
The MIC was 5 µM (≈ 8.34 µg/mL).

And the MIC [2]?
The MIC was 30 µM (≈ 50 µg/mL).

With CC[C@H](C)[C@H](NC(=O)[C@H](CCCN=C(N)N)NC(=O)[C@H](CCCCN)NC(=O)[C@H](CC(C)C)NC(=O)[C@@H](N)CC(C)C)C(=O)N[C@@H](CCCCN)C(=O)N[C@H](C(=O)N[C@@H](CC(C)C)C(=O)N[C@@H](CC(C)C)C(N)=O)[C@@H](C)O [LLKRIKTLL] as the compound, how does the MIC [1] read?
Its MIC is over 54.7 µM.

And the MIC [2]?
The MIC was 54.7 µM (≈ 59.9 µg/mL).

With CC(C)[C@H](NC(=O)[C@H](Cc1ccc(O)cc1)NC(=O)[C@H](CO)NC(=O)[C@H](CCCCN)NC(=O)[C@@H](N)Cc1c[nH]c2ccccc12)C(=O)N[C@@H](CCCN=C(N)N)C(=O)N[C@@H](CCCN=C(N)N)C(=O)N[C@@H](Cc1c[nH]c2ccccc12)C(=O)N[C@@H](CCCN=C(N)N)C(=O)N[C@@H](CO)C(=O)N[C@@H](CCCN=C(N)N)C(=O)N[C@@H](Cc1ccc(O)cc1)C(N)=O [WKSYVRRWRSRY] as the compound, how does the MIC [3] read?
Its MIC is 100 µM (≈ 174 µg/mL).

And the MIC [1]?
Its MIC is 32 µM (≈ 55.7 µg/mL).

And the MIC [2]?
The MIC was 16 µM (≈ 27.9 µg/mL).

Which results are given for CC[C@H](C)[C@H](NC(=O)[C@H](CCCN=C(N)N)NC(=O)[C@H](CCCCN)NC(=O)[C@H](CC(C)C)NC(=O)[C@H](CC(C)C)NC(=O)[C@@H](N)CCCCN)C(=O)N[C@@H](CCCCN)C(=O)N[C@H](C(=O)N[C@@H](CC(C)C)C(=O)N[C@@H](CC(C)C)C(N)=O)[C@@H](C)O [KLLKRIKTLL]?
MIC [1]: > 19.6 µM; MIC [2]: 19.6 µM (≈ 24 µg/mL)

Which MIC [2] does the source give for CC(C)C[C@H](NC(=O)[C@@H](N)C(C)C)C(=O)N[C@H](C(=O)N1CCC[C@H]1C(=O)N[C@@H](CCC(N)=O)C(=O)NCC(=O)N[C@@H](Cc1ccccc1)C(=O)N[C@@H](C)C(=O)N[C@H](C(=O)N[C@H](C(=O)N[C@@H](CCCCN)C(=O)N[C@@H](CCCCN)C(=O)N[C@@H](C)C(=O)N[C@@H](CC(N)=O)C(=O)N[C@@H](Cc1ccccc1)C(=O)N[C@H](C(=O)N[C@@H](C)C(=O)N[C@@H](Cc1ccccc1)C(=O)N[C@@H](Cc1ccc(O)cc1)C(=O)N[C@H](C(=O)O)[C@@H](C)O)C(C)C)C(C)C)C(C)C)C(C)C [VLVPQGFAVVKKANFVAFYT] here?
Its MIC is 233 µM (≈ 512 µg/mL).

Which MIC [3] does the source give for CC(C)[C@H](NC(=O)[C@H](Cc1ccc(O)cc1)NC(=O)[C@H](CO)NC(=O)[C@H](CCCCN)NC(=O)[C@@H](N)Cc1c[nH]c2ccccc12)C(=O)N[C@@H](CCCN=C(N)N)C(=O)N[C@@H](CCCN=C(N)N)C(=O)N[C@@H](Cc1c[nH]c2ccccc12)C(=O)N[C@@H](CCCN=C(N)N)C(=O)N[C@@H](CO)C(=O)N[C@@H](CCCN=C(N)N)C(N)=O [WKSYVRRWRSR] here?
The MIC was over 100 µM.

What about the MIC [1] of the same compound?
The MIC was 32 µM (≈ 50.5 µg/mL).

And the MIC [2]?
The MIC was 16 µM (≈ 25.3 µg/mL).

Which MIC [1] does the source give for CC[C@H](C)[C@H](NC(=O)[C@H](CCCN=C(N)N)NC(=O)[C@H](CCCCN)NC(=O)[C@H](CC(C)C)NC(=O)[C@H](CC(C)C)NC(=O)CN)C(=O)N[C@@H](CCCCN)C(=O)N[C@H](C(=O)N[C@@H](CC(C)C)C(N)=O)[C@@H](C)O [GLLKRIKTL] here?
The MIC was over 41.3 µM.

And the MIC [2]?
Its MIC is over 41.3 µM.

Which MIC [1] does the source give for CC(C)C[C@H](NC(=O)[C@H](C)NC(=O)[C@H](CCCCN)NC(=O)[C@H](C)NC(=O)[C@H](CC(C)C)NC(=O)[C@H](CC(=O)O)NC(=O)[C@@H](N)CCC(=O)O)C(=O)N[C@@H](C)C(=O)N[C@@H](CCCCN)C(=O)N[C@@H](CCCCN)C(=O)O [EDLAKALAKK] here?
Its MIC is 2300 µM (≈ 2500 µg/mL).

And the MIC [2]?
The MIC was 4600 µM (≈ 5000 µg/mL).

For CC[C@H](C)[C@H](NC(=O)CNC(=O)[C@@H](N)CO)C(=O)N[C@@H](CCC(N)=O)C(=O)N1CCC[C@H]1C(=O)N[C@@H](CCC(=O)O)C(=O)N[C@@H](CCC(N)=O)C(=O)N[C@@H](Cc1cnc[nH]1)C(=O)N[C@@H](CO)C(=O)N[C@@H](CO)C(N)=O [SGIQPEQHSS], which MIC [3] is on record?
The MIC was over 100 µM.

What about the MIC [1] of the same compound?
The MIC was over 100 µM.

What about the MIC [2] of the same compound?
Its MIC is over 100 µM.

CC(C)C[C@H](NC(=O)[C@H](CC(N)=O)NC(=O)[C@H](CCCCN)NC(=O)[C@H](CCCN=C(N)N)NC(=O)[C@@H]1CCCN1C(=O)[C@H](C)N)C(=O)N[C@@H](CCCCN)C(=O)N[C@@H](Cc1c[nH]c2ccccc12)C(=O)O [APRKNLKW] was tested. Which MIC [2] did it give?
The MIC was 31.6 µM (≈ 32 µg/mL).

Reference: DBAASP
